Measured values as given in patent publication US4354033A, “Anthranilic acid esters” (Council of Scientific & Industrial Research, priority 1981, dated 1982).

Legend:
cotton pellet granuloma = assay: Cotton pellet granuloma; assay type: in vivo; conditions: 100 mg/kg orally daily for 7 days
[1] = Anti-inflammatory activity in a battery of tests (summary statement); assay type: in vivo
[2] = tested on: formaldehyde induced arthritis; assay: Formaldehyde arthritis; assay type: in vivo; conditions: 100 mg/kg orally daily for 10 days
LD50 i.p. in mice = conditions: mouse, in vivo, ip
Ulcerogenic properties = assay type: in vivo; conditions: 100 mg/kg daily orally for 7 days
capillary permeability = conditions: at 100 mg
carrageenin oedema = assay: Antiinflammatory action (rats), carrageenin oedema; assay type: in vivo; conditions: for inhibition of carrageenin oedema: 200 mg/kg (p.o.); for inhibition (carrageenin): rats, 100 mg/kg p.o.
Procedure: Antiinflammatory action (Rats): Dose: 100 mg/kg p.o.
(ii) It produces 30% inhibition when given 1/2 hour before the injection of carrageenin.
Effect on carrageenin oedema at 200 mg/kg (p.o.)
(i) 60% inhibition when given 1 hour before the injection of carrageenin.
(iii) 62% of inhibition when given 1/2 hour after the injection of carrageenin.
Antiinflammatory action (Rats)
Effect on carrageenin oedema at 200 mg/kg

[3] = 1/2 hour after injection of carrageenin
[4] = 1/2 hour before injection of carrageenin

O=C(COC(=O)c1ccccc1NCCc1ccccc1)c1ccccc1 [2-N-β-phenethyl phenacyl anthranilate, 2-N-β-phenethyl-phenacyl anthranilate]
inhibition of cotton pellet granuloma (cotton pellet granuloma): 31% | anti-inflammatory activity [1]: potent anti-inflammatory activity | inhibition of formaldehyde induced arthritis [2]: 14% | LD50 (LD50 i.p. in mice): > 800 mg/kg | ulcerogenic activity (Ulcerogenic properties): does not show any ulcerogenic activity | inhibition (mouse capillary permeability) (capillary permeability): 52% | inhibition of carrageenin oedema (carrageenin oedema; [3]): 62% | inhibition of carrageenin oedema (carrageenin oedema; [4]): 43% | inhibition of carrageenin oedema (carrageenin oedema; 1 hour before injection of carrageenin): 60% | inhibition (carrageenin) (carrageenin oedema; [3]): 43% | inhibition (carrageenin) (carrageenin oedema; [4]): 30% | inhibition (carrageenin) (carrageenin oedema; one hour before injection of carrageenin): 44.5%
